Reference: the supplement of paper PMC4862054

How the values were obtained:
Details in all cases: 72 h
CAL-120 = system: CAL-120
Summary of the method: (§1)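 In this assay, breast cancer cell lines spent 72 h with compound at 5 concentrations in 10-fold steps over a compound-specific 10,000-fold range. The first readout was cell death by CellTox Green fluorescence, and the second was viability by CellTiter-Glo luminescence, each normalised per plate to 0.1 % DMSO and a positive kill control. EC50 came from the dose-response curves, censored at the top concentration.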

MDA-MB-453 = system: MDA-MB-453
Summary of the method: as §1

CAL-51 = system: CAL-51
Summary of the method: as §1

HCC1937 = system: HCC1937
Summary of the method: as §1

BT-549 = system: BT-549
Summary of the method: as §1

SK-BR-3 = system: SK-BR-3
Summary of the method: as §1

MDA-MB-468 = system: MDA-MB-468
Summary of the method: as §1

CAL-85-1 = system: CAL-85-1
Summary of the method: as §1

BT-474 = system: BT-474
Summary of the method: as §1

MCF-10A = system: MCF-10A
Summary of the method: as §1

MDA-MB-231 = system: MDA-MB-231
Summary of the method: as §1

Hs578T = system: Hs578T
Summary of the method: as §1

MDA-MB-436 = system: MDA-MB-436
Summary of the method: as §1

EC50, CellTiter-Glo (MDA-MB-453): 12 nM
EC50, CellTiter-Glo (HCC1937): 13 nM
EC50, CellTiter-Glo (BT-549): 9.82 nM
EC50, CellTiter-Glo (SK-BR-3): 14 nM
EC50, CellTiter-Glo (MDA-MB-468): 23.1 nM
EC50, CellTiter-Glo (BT-474): 9.85 nM
EC50, CellTiter-Glo (MDA-MB-231): 11.8 nM
EC50, CellTiter-Glo (MDA-MB-436): 3.68 nM
Structure (SMILES): Cn1c(=O)n(-c2ccc(C(C)(C)C#N)cc2)c2c3cc(-c4cnc5ccccc5c4)ccc3ncc21 [Dactolisib]
EC50, CellTiter-Glo (CAL-120): 9.42 nM
EC50, CellTiter-Glo (CAL-51): 14.3 nM
EC50, CellTiter-Glo (CAL-85-1): 8.05 nM
EC50, CellTiter-Glo (MCF-10A): 28.5 nM
EC50, CellTiter-Glo (Hs578T): 13.6 nM
